These results are taken from article PMC3172300, “Modulation of Catalytic Activity in Multi-Domain Protein Tyrosine Phosphatases” (PLoS ONE, 2011).

Numbering of substitutions follows the chain as printed. Read-outs that look alike come from different tables or passages of the source. Square brackets hold non-standard residues; d marks the D form. Peptide text beside a SMILES is read from it. pY = N[C@@H](Cc1ccc(OP(=O)(O)O)cc1)C(=O)O

The target of assay [1] is T1, DLAR D1 D2HSS (Drosophila melanogaster, UniProt P16621, C1961S).
T1 construct: DLAR 1448-2029; His tag (pET-15b or pET-22b); made in house; host or cells: E. coli BL21(DE3)
The experiment in a line: Surface Plasmon Resonance peptide binding, DLAR D1 D2HSS. The note with it: two-site model, read-out: ka. Here is the method:
(§1) The binding of phosphotyrosine peptides to the PTP domains was studied by Surface Plasmon Resonance on a Biacore-2000 instrument (BIAcore, AB). All experiments were conducted at 25°C. DLAR PTP domains were immobilized onto carboxylated dextran CM5 chips (BIAcore AB) using the standard amine coupling procedure as recommended by the manufacturer. Binding and kinetic assays were performed in 10 mM HEPES, pH 8.0, 150 mM NaCl, 10 mM DTT and 3 mM EDTA at a flow rate of 5 µL/min. The peptides were used at concentrations ranging from 50–700 µM. Dissociation was initiated by replacing the analyte with buffer. The association and dissociation curves were monitored for 600 sec. Sensograms were analyzed with BIA-evaluation software version 2 (BIAcore AB). Sensograms for DLAR D1D2, DLAR D1HSSD2 and DLAR D1D2HSS were fitted to two-site binding equations. DLAR D1 and DLAR D2 sensograms were fitted using a single-site binding model.

Assay [2] concerns the target T2, DLAR D1D2 (Drosophila melanogaster, UniProt P16621).
T2 construct: DLAR 1448-2029; His tag (pET-15b or pET-22b); made in house; host or cells: E. coli BL21(DE3)
T2 sequence (P16621 1448-2029): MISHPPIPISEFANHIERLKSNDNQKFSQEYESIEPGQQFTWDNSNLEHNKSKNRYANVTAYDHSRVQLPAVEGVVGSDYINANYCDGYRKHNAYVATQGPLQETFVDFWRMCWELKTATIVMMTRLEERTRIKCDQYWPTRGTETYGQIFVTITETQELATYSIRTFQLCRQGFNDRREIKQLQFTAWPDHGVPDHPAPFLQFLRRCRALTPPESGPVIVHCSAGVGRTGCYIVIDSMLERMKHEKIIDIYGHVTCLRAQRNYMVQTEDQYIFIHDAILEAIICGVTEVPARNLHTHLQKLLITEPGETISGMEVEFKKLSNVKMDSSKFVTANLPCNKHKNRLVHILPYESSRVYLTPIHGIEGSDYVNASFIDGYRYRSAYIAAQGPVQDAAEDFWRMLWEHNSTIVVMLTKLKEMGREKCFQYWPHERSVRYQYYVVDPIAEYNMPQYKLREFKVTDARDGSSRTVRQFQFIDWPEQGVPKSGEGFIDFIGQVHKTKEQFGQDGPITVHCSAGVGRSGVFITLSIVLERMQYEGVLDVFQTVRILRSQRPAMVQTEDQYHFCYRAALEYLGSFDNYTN
The assay can be described thus: Surface Plasmon Resonance peptide binding, DLAR D1D2. Particulars: two-site model, read-out: ka. Here is the method: as §1

Assay [3] has as its target T3, DLAR D1HSS D2 (Drosophila melanogaster, UniProt P16621, C1670S).
T3 construct: DLAR 1448-2029; His tag (pET-15b or pET-22b); made in house; host or cells: E. coli BL21(DE3)
T3 sequence (P16621 1448-2029 C1670S): T2 sequence (P16621 1448-2029) with C223S
The experiment in a line: Surface Plasmon Resonance peptide binding, DLAR D1HSS D2. Particulars: two-site model, read-out: ka. Here is the method: as §1

Assay [4] deals with T4, PTP99A D2 (Drosophila melanogaster, UniProt P35832).
T4 sequence (P35832 740-1050): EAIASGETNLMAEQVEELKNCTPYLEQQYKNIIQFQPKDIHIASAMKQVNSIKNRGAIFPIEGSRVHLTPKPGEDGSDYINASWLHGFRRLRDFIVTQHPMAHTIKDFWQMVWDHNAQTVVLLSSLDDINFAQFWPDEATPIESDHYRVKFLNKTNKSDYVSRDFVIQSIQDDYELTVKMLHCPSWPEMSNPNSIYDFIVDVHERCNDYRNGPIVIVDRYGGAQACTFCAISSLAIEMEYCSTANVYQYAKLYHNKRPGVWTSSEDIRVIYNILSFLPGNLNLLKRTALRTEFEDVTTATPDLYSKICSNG
The assay can be described thus: Phosphatase assay using pNPP, PTP99A D2. The class given is biochemical. Particulars: CGH buffer pH 6.5. Here is the method:
Phosphatase activity of the recombinant PTP domains was determined by using para-Nitrophenylphosphate (pNPP), a small molecule generic substrate, as well as phosphotyrosine containing peptides. The pNPP assay was performed as reported previously, with a modification in the buffer composition (25 mM Citrate, Glycine and HEPES (CGH), pH 6.5, 100 mM NaCl and 2 mM DTT). Phosphatase activity with the phosphotyrosine peptides was ascertained by the malachite green reaction as described for PTPs previously. Briefly, the reaction mixture comprised of 0.01 µM protein incubated with increasing concentrations of different peptides in 25 mM citrate buffer pH 6.0, 100 mM NaCl and 2 mM DTT for 15 min at 25°C. The reaction was stopped by the addition of the Biomol Green reagent (Enzo Life Sciences) and the colour developed after 20 min was quantified at 650 nm. For all the assays, kinetic constants for the steady state catalysis were obtained by fitting the reaction curves to the Michaelis-Menten equation using the nonlinear regression module of Sigma plot software (Systat Software, Inc.).

Where [5] appears, read: pH 8, SPR Biacore-2000, 25°C, 10 mM HEPES pH 8.0, 150 mM NaCl, 10 mM DTT, 3 mM EDTA, peptides 50–700 µM, first binding site.
Where [6] appears, read: pH 8, SPR, 25°C, pH 8.0, second binding site.

T1 sequence (P16621 1448-2029 C1961S): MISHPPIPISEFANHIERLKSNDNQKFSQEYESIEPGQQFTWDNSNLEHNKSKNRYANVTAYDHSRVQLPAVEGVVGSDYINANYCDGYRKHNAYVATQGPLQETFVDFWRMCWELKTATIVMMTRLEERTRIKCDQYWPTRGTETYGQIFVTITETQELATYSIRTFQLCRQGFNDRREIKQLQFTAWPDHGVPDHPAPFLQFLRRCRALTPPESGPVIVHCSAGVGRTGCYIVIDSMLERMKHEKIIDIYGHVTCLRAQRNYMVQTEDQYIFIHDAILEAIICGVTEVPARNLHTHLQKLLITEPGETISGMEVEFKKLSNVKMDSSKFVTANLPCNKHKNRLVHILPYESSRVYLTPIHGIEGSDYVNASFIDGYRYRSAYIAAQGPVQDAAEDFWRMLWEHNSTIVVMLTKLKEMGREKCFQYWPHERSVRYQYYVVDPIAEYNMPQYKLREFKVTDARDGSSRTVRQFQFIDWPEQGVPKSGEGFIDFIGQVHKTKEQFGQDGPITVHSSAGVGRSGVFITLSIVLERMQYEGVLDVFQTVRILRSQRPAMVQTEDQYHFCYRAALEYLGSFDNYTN

On to `CC(C)C[C@H](NC(=O)[C@H](C)NC(=O)CNC(=O)[C@H](Cc1ccc(OP(=O)(O)O)cc1)NC(=O)[C@H](CC(=O)O)NC(=O)[C@@H]1CCCN1C(=O)[C@H](CCC(=O)O)NC(=O)[C@H](C)NC(=O)[C@@H](N)[C@@H](C)O)C(=O)N[C@@H](Cc1ccc(O)cc1)C(=O)N[C@@H](CCC(=O)O)C(=O)O` [Cuticle peptide] (H-TAEPD[pY]GALYE-OH), for which the kon in assay [1] (setting [5]) turned out to be 51.7 ± 0.61 M⁻¹ s⁻¹; in assay [1] (setting [6]), 1.37 ± 0.4 M⁻¹ s⁻¹; in assay [2] (setting [5]) it was 32.6 ± 1.57 M⁻¹ s⁻¹; in assay [2] (setting [6]), 16500 ± 2.3e+07 M⁻¹ s⁻¹; in assay [3] (setting [5]), 74.7 ± 2.41 M⁻¹ s⁻¹; in assay [3] (setting [6]), 28800 ± 8e+06 M⁻¹ s⁻¹.

Turning to `O=[N+]([O-])c1ccc(OP(=O)(O)O)cc1` [pNPP, para-Nitrophenylphosphate], the PTPase activity result in assay [4] is “no detectable activity”.
